{"source": "ChEMBL document CHEMBL5465560", "about": "“Selectivity Literature for EUbOPEN Chemogenomic Library” (2024)", "key": {"[1]": {"target": "Myosin light chain kinase, smooth muscle (Homo sapiens, UniProt Q15746)", "assay": "Selectivity interaction (KinomeScan (DiscoverX)) EUB0000092b MYLK", "conditions": "at 10 µM"}, "[2]": {"target": "T1, Tyrosine-protein kinase Tec (Homo sapiens) (UniProt P42680)", "T1 sequence (whole entry)": "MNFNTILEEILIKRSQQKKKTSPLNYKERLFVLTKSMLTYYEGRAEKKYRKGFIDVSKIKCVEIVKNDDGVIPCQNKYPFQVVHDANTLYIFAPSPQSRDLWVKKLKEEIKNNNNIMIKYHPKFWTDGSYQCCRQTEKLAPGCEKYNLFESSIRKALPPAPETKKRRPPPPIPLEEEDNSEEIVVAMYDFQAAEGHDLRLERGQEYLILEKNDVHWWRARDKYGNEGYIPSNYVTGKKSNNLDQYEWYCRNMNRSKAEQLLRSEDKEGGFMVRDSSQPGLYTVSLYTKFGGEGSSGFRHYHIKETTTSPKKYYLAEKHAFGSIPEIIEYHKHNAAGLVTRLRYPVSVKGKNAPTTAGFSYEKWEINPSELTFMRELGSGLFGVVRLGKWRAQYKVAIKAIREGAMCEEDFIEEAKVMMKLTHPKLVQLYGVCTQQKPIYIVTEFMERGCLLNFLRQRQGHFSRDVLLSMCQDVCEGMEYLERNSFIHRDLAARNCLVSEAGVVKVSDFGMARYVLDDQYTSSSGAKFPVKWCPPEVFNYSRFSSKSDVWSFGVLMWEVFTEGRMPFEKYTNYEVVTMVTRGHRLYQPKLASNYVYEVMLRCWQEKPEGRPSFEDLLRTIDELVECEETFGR", "assay": "Selectivity interaction (ProQinase) EUB0000171b TEC"}, "[3]": {"target": "T2, Cyclin-G-associated kinase (Homo sapiens) (UniProt O14976)", "T2 sequence (whole entry)": "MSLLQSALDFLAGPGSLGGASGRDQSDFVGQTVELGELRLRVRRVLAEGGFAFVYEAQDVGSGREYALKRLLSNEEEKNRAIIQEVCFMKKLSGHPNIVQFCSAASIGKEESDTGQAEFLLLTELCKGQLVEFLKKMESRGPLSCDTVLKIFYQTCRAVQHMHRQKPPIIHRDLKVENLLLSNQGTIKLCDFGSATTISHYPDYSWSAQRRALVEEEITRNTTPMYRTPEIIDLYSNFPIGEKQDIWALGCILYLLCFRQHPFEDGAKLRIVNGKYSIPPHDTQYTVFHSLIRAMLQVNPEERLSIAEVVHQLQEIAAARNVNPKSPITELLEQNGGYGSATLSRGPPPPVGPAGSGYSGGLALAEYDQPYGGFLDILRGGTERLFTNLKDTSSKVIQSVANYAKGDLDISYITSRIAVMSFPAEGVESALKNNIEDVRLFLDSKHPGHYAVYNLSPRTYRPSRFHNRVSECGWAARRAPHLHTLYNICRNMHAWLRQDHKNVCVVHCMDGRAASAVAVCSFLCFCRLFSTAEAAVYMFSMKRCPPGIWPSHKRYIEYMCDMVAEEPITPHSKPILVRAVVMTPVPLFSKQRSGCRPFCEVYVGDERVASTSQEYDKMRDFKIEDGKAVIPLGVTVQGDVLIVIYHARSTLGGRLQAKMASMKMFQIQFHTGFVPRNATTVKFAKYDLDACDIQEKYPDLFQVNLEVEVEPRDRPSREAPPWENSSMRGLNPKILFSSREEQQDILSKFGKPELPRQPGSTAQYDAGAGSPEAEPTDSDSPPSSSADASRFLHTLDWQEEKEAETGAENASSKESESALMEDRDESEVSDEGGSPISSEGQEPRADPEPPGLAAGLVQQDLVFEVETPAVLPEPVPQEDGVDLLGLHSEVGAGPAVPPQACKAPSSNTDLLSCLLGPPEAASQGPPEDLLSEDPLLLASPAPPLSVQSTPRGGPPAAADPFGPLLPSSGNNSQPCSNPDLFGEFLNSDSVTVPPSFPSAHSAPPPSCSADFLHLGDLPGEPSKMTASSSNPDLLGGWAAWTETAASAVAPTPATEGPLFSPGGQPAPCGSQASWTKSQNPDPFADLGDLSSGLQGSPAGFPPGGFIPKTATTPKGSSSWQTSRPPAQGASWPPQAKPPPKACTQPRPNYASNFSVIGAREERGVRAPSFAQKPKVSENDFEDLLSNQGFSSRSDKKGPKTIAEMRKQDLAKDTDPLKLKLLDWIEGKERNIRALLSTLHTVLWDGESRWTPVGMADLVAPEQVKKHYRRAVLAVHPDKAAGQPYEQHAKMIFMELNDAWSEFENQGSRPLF", "assay": "Selectivity interaction (Kinase panel (DSF assay)) EUB0001559a GAK"}, "[4]": {"target": "Platelet-derived growth factor receptor beta (Homo sapiens, UniProt P09619)", "sequence (P09619 whole entry)": "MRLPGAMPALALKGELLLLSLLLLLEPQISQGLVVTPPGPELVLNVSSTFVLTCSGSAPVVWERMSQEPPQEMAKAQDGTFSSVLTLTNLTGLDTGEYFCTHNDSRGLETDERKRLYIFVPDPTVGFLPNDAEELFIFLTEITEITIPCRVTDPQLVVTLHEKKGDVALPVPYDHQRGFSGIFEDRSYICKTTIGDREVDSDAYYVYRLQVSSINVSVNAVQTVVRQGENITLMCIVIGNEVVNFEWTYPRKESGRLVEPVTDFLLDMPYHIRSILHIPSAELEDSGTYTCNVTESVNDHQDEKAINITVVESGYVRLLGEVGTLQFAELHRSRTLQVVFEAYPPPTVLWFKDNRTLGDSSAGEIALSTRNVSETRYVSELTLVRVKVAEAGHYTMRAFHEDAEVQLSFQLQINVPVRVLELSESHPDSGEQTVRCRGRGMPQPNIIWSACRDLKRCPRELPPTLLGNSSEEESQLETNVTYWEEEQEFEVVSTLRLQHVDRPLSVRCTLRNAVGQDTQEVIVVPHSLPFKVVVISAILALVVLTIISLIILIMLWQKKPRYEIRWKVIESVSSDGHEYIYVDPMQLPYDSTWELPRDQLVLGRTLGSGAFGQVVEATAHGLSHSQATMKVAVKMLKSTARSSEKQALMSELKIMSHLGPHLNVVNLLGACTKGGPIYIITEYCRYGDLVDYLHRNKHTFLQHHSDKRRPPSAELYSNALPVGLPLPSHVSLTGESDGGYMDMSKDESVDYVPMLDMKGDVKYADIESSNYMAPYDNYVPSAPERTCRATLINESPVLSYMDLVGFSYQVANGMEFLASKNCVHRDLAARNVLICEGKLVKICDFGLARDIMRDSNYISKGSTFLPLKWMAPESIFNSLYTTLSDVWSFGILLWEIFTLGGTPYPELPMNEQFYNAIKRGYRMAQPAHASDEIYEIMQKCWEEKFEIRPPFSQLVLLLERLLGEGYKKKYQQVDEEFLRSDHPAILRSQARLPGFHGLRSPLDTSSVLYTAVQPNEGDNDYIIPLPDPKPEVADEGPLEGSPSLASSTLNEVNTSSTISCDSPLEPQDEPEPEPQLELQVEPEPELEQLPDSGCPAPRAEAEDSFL", "assay": "Selectivity interaction (KinomeScan (DiscoverX)) EUB0000666a PDGFRB", "conditions": "at 10 µM"}, "[5]": {"target": "Serine/threonine-protein kinase 38-like (Homo sapiens) (UniProt Q9Y2H1)", "sequence (Q9Y2H1 2-464 limits assumed)": "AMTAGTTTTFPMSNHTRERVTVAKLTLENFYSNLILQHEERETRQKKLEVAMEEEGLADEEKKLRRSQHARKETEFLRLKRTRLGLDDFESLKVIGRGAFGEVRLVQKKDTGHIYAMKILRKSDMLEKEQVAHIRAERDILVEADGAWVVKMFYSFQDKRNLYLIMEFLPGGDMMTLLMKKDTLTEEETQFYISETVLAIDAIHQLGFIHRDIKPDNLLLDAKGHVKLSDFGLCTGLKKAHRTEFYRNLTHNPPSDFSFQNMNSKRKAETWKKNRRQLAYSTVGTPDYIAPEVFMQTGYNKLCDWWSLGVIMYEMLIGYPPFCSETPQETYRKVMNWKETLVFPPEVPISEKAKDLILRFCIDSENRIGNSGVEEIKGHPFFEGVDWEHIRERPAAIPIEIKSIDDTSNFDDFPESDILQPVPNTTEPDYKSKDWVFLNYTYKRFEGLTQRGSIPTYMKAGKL", "assay": "Selectivity interaction (ActivX KiNativ screen (kinase selectivity in THP-1 cell lysates)) EUB0000639a STK38L", "assay_type": "subcellular", "conditions": "lysate"}, "[6]": {"target": "Tyrosine-protein kinase CSK (Homo sapiens) (UniProt P41240)", "sequence (P41240 2-450 limits assumed)": "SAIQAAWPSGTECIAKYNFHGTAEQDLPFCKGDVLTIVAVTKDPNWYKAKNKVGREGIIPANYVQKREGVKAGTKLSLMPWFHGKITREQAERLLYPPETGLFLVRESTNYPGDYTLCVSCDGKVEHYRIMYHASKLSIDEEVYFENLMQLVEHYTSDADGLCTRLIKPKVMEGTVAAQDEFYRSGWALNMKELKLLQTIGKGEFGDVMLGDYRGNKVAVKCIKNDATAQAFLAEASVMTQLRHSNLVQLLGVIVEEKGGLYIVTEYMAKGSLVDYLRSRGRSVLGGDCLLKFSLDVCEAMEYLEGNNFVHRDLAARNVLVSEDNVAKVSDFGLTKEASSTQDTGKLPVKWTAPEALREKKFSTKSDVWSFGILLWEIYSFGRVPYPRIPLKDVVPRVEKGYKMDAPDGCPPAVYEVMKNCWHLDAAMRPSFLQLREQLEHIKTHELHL", "assay": "Selectivity interaction (SelectScreen profiling (Invitrogen)) EUB0000607a CSK", "conditions": "at 2 µM"}, "[7]": {"target": "Receptor-interacting serine/threonine-protein kinase 2 (Homo sapiens, UniProt O43353)", "sequence (O43353 whole entry)": "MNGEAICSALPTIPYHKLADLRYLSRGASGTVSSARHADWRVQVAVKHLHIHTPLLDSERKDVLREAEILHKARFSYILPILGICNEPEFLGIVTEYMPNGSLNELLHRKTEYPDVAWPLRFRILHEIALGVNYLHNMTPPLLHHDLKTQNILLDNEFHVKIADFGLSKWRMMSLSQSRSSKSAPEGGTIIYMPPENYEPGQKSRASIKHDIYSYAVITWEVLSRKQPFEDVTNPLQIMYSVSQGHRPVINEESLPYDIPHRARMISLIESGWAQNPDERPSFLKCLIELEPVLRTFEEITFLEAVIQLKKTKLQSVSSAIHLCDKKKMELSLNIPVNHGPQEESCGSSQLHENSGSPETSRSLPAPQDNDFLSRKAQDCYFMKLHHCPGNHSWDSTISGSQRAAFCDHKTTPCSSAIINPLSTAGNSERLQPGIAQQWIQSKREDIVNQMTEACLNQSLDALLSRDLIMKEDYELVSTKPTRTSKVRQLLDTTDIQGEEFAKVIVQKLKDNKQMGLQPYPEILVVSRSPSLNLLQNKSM", "assay": "Selectivity interaction (KinomeScan (DiscoverX)) EUB0000607a RIPK2", "conditions": "at 10 µM"}, "[8]": {"target": "Leukocyte tyrosine kinase receptor (Homo sapiens, UniProt P29376)", "assay": "Selectivity interaction (KinomeScan (DiscoverX)) EUB0000695a LTK", "conditions": "at 100 nM"}, "[9]": {"target": "Serine/threonine-protein kinase SIK1 (Homo sapiens) (UniProt P57059)", "sequence (P57059 whole entry)": "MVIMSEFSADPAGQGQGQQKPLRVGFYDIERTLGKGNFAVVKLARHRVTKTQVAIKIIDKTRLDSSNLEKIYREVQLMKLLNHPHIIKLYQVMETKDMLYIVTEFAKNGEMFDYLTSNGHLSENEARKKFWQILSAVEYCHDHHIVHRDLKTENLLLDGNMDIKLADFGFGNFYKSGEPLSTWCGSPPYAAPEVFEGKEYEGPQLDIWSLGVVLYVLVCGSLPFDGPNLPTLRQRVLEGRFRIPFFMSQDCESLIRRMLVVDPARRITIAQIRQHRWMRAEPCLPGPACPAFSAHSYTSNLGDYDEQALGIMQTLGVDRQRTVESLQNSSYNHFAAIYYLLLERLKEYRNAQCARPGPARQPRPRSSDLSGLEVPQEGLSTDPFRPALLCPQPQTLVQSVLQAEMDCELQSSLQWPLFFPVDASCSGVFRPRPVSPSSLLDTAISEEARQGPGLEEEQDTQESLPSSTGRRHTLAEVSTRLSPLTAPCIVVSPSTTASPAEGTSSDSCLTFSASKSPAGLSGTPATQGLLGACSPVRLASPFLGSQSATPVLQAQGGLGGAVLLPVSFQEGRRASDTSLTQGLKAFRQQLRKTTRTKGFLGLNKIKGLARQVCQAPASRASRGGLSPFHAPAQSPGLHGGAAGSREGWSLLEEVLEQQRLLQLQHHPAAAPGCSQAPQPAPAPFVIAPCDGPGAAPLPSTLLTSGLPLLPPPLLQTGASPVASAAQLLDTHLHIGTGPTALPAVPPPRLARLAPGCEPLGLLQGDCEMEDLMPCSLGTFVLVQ", "assay": "Selectivity interaction (KinomeScan (DiscoverX)) EUB0000595a SIK1", "conditions": "at 10 µM"}, "[10]": {"target": "Serine/threonine-protein kinase Nek6 (Homo sapiens) (UniProt Q9HC98)", "sequence (Q9HC98 whole entry)": "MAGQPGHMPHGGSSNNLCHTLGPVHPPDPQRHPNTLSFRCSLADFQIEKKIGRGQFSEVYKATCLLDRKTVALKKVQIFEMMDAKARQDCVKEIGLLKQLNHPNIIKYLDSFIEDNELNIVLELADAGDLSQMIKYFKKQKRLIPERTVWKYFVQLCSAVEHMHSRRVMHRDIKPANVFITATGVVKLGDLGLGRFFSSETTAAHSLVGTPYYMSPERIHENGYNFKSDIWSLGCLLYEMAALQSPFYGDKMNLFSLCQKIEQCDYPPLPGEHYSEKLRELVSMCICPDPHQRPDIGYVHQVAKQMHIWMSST", "conditions": "at 10 µM"}, "[11]": {"target": "Casein kinase I isoform gamma-3 (Homo sapiens) (UniProt Q9Y6M4)", "sequence (Q9Y6M4 whole entry, looked up, canonical isoform)": "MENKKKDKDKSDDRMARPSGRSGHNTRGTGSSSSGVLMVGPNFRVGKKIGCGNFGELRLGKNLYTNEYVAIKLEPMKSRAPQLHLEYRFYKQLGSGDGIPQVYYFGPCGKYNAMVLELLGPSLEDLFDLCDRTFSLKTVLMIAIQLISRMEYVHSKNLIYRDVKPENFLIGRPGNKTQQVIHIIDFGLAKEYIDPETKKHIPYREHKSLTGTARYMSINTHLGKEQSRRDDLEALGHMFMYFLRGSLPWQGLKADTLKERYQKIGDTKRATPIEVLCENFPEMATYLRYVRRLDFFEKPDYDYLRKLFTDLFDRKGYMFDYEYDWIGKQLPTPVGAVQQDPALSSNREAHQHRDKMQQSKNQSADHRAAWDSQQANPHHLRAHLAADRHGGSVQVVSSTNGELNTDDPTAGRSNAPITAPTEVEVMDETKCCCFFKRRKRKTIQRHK", "assay": "Selectivity interaction (KinomeScan (DiscoverX)) EUB0000045b CSNK1G3"}, "Aurora kinase B": {"target": "Aurora kinase B (Homo sapiens, UniProt Q96GD4)", "assay": "Selectivity interaction (Kinase panel (literature)) EUB0001199aCl AURKB", "conditions": "at 1 µM"}, "[12]": {"target": "LIM domain kinase 2 (Homo sapiens) (UniProt P53671)", "sequence (P53671 whole entry, looked up, the tested form may be a part)": "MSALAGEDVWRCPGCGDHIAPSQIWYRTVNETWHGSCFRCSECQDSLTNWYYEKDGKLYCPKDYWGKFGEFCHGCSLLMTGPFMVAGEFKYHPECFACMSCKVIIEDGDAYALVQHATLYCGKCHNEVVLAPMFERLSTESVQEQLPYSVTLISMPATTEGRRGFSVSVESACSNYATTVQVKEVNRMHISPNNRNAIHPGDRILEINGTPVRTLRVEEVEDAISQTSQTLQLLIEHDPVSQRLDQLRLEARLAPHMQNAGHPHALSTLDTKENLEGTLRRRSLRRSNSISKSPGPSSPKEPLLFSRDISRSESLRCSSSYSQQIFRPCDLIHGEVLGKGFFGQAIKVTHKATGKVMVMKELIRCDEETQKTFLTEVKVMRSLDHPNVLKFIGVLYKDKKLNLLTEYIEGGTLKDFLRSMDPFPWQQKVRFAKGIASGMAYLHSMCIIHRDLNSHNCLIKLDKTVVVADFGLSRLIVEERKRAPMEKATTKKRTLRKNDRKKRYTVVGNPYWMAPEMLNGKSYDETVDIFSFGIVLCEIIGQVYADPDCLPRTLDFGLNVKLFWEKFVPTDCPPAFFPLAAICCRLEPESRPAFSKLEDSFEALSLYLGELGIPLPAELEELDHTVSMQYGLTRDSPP", "assay": "Selectivity interaction (KinomeScan (DiscoverX)) EUB0001619a LIMK2", "conditions": "at 1 µM"}}, "data": [{"smiles": "CCC(=O)N1CCN(c2ccc(-n3c(=O)ccc4cnc5ccc(-c6cnc7ccccc7c6)cc5c43)cc2C(F)(F)F)CC1", "values": [{"measurement": "% of control", "setting": "[1]", "value": 87, "unit": "%"}]}, {"smiles": "C=CC(=O)Nc1cccc(C(=O)Nc2ccc(Nc3cc(-c4[nH]c(SC)nc4C)ccn3)cc2)c1", "values": [{"measurement": "% of control", "setting": "[2]; at 1 µM", "value": 99, "unit": "%"}, {"measurement": "% of control", "setting": "[2]; at 5 µM", "value": 81, "unit": "%"}]}, {"smiles": "CN(C(=O)c1cnn2cccnc12)c1cc2c(cc1N1CCOCC1)C(=O)N(C[C@@H](F)C(C)(C)O)C2", "values": [{"measurement": "dTM", "setting": "[3]", "value": 0.1, "unit": "K"}]}, {"smiles": "O=C(NOC[C@H](O)CO)c1ccc(F)c(F)c1Nc1ccc(I)cc1F", "values": [{"measurement": "% of control", "setting": "[4]", "value": 66, "unit": "%"}]}, {"smiles": "CC[C@@H]1[C@H](F)C(=O)N[C@@H]1COc1nccc2cc(C(N)=O)c(OC)cc12", "note": "[ZIMLOVISERTIB]", "values": [{"measurement": "% of inhibition", "setting": "[5]; at 0.01 µM", "value": 5.2, "unit": "%"}, {"measurement": "% of inhibition", "setting": "[5]; at 0.04 µM", "value": -2, "unit": "%"}, {"measurement": "% of inhibition", "setting": "[5]; at 0.2 µM", "value": 12, "unit": "%"}, {"measurement": "% of inhibition", "setting": "[5]; at 1 µM", "value": 51.5, "unit": "%"}, {"measurement": "% of inhibition", "setting": "[5]; at 5 µM", "value": 82.9, "unit": "%"}]}, {"smiles": "CNC(=O)Nc1ccc(-c2nc(N3CC4CCC(C3)O4)c3cnn(C4CCC5(CC4)OCCO5)c3n2)cc1", "values": [{"measurement": "% of inhibition", "setting": "[6]", "value": -1, "unit": "%"}, {"measurement": "% of control", "setting": "[7]", "value": 71, "unit": "%"}]}, {"smiles": "Cc1cc(F)c(C(=O)Nc2cccc(-c3nncn3C(C)C)n2)cc1-n1cnc(C2CC2)c1", "values": [{"measurement": "% of control", "setting": "[8]", "value": 93, "unit": "%"}]}, {"smiles": "COCC(=O)NC/C=C/c1ccc2ncnc(Nc3ccc(Oc4ccc(C)nc4)c(C)c3)c2c1", "note": "[CP-724714]", "values": [{"measurement": "% of control", "setting": "[9]", "value": 100, "unit": "%"}, {"measurement": "% of control", "setting": "[10]", "value": 100, "unit": "%"}]}, {"smiles": "C=CC(=O)Nc1cc(-n2c(=O)ccc3cnc4ccc(-c5ccc(NS(C)(=O)=O)cc5)cc4c32)ccc1C", "values": [{"measurement": "% of control", "setting": "[11]; at 1 µM", "value": 100, "unit": "%"}, {"measurement": "% of control", "setting": "[11]; at 10 µM", "value": 84, "unit": "%"}]}, {"smiles": "CN1Cc2nccc(-c3cn(C)nc3-c3ccc(F)cc3)c2C1=O", "values": [{"measurement": "% of inhibition", "setting": "Aurora kinase B", "value": 4, "unit": "%"}]}, {"smiles": "N#Cc1cccc(-c2c[nH]c3ncnc(N4CCOCC4)c23)c1", "values": [{"measurement": "% of control", "setting": "[12]", "value": 96, "unit": "%"}]}]}
